Data taken from patent US5597798A, “Taxol and epidermal growth factor used to enhance treatment of ovarian cancer” (The Regents of the University of California, priority 1994, dated 1997).

Experiments:
[1] = test system: 2008 cells; experiment: Cellular accumulation of [195mPt]DDP; assay type: cell-based, human; settings: 60 min
Procedure: (§1) Cell-associated ^195m Pt was determined by as a measure of DDP accumulation. For DDP accumulation studies, subconfluent monolayers were treated with 37° C. RPMI 1640 medium containing 20 μM [^195m Pt]-DDD. The dishes were immediately returned to the incubater. After 1 h incubation, the medium was aspirated, the cells were washed rapidly with 4° C. PBS 4 times. Two ml of 1N NaOH was added and the cells allowed to digest overnight. A forty μl aliquot was used for determination of protein content by the method of Bradford (Bradford, Anal. Biochem. 72:248-254 (1976)), and the remaining […] was counted in glass tubes on a Trak 1191 gamma counter (Tracer Analytic, EIK Grove Village, Ill.). Columns represent the mean values of 3 experiments performed with duplicate cultures. The bars represent the standard deviation.
Cultured 2008 cells were treated concurrently with [^195m Pt]DDP and TPA for 60 min. A vehicle control consisting of an appropriate dilution of acetone was run concurrently. […] Cells treated with medium alone contained 140±13 pmol/mg of protein, whereas those treated with the acetone control contained 141±7 pmol/mg of protein, and those treated with TPA contained 143±21 pmol/mg of protein.

[2] = test system: 2008/C13*5 cells; experiment: Cellular accumulation of DDP; assay type: cell-based, human; settings: medium alone, end of a 1-h incubation
Procedure: as §1
The 2008/C13*5 cell line is 8-10-fold resistant to DDP. […] C13*5 cells were treated with appropriate concentration of DDP in the presence (.circle-solid.) or absence (0) of 10^-7 M TPA for 1 h. Drug cytotoxicity was determined by colonogenic assay on plastic dishes. Each point represents the mean values of 3 experiments performed with triplicate cultures. The bars represent the standard deviation. […] This 2.6-fold sensitization was nearly identical with the 2.5 fold sensitization observed in the DDP-sensitive 2008 cells. […]

[3] = test system: 2008 tumor xenografts; experiment: Effect of EGF on cisplatin toxicity against tumor xenografts in athymic mice; assay type: in vivo, athymic mice (nu/nu)
Procedure: For these studies, 3 to 4 week old female athymic mice (nu/nu) from BALB/c origin were used which were supplied by Harlan Sprague Dawley, Inc. (Indianapolis, Ind.). The mice were kept in a laminar flow hood at 28° C. and fed standard mouse diet and water ad libitum.
Tumor xenografts were established from 2008 cells by harvesting confluent cell cultures by trypsinization and resuspending the cells in RPMI 1640 medium at 2.5×10^7 cells per ml. From this suspension, 0.2 ml aliquots containing 5×10^6 cells were injected s.c. on each shoulder of the athymic mice. In each mouse, two tumors were followed and tumor volumes were determined using the formula (length×width^2)/2 (Giavazzi et al., Cancer Res. 46:1928 (1986) and Tomayko & Reynolds Cancer Chemother. Pharmacol. 24:148 (1989)).
In all groups, treatment was administered 24 hours after the inoculation with tumor cells.
Tumor growth of each tumor in each animal was expressed as plot of in(tumor volume) as a function of time. The regression line of the in(tumor volume) versus time plot was calculated by using the method of least squares. The intercept and slope were obtained and used to calculate the time each tumor required to reach an arbitrarily defined volume of 1 ml. This volume was chosen because most tumors in all treatment groups reached this endpoint. For comparisons between two groups the unpaired Student's T-test was used. […]

## N.N.[Cl][Pt][Cl] [cisplatin]
[1]; medium alone
  cellular accumulation of [195mPt]DDP: 140±13 pmol/mg of protein
[1]; treated concurrently with TPA
  cellular accumulation of [195mPt]DDP: 143±21 pmol/mg of protein
[2]
  DDP accumulated: 37.0±3 pmol/mg of protein
[3]; 1 mg/kg EGF s.c. and/or 15 mg/kg cisplatin i.p., 24 hours after inoculation
  final tumor volume: significantly reduced relative to control tumors
[3]; 15 mg/kg cisplatin i.p.
  additional time required for tumors to reach a volume of 1 ml vs control tumors: 6 days
